The structures appear in SMILES notation.

The test system of one assay is HUH7 cells. As to the kind of experiment: Stable isotope (13C18-oleic acid) labeling of triglyceride synthesis with LC-MS detection in HUH7 cells. The settings on record: for levels of 13C18-triolein relative to those of the control: 10 μM compound, about 90 minutes with 13C18-oleic acid, % of control (FIG. 3). It is filed as cell-based, human. Here is the method:
(§1) The 3T3-L1 mouse preadipocyte cells were maintained in Dulbecco's Modified Eagles Medium (DMEM) with 10% fetal bovine serum (FBS). Cells were seeded in 96-well plates. Two days post confluency, the medium was changed to induction medium with IBMX, insulin, and dexamethasone (Adipolysis kit, Cayman Chemical Company). Three days after induction, the medium was changed to insulin medium (Adipolysis kit, Cayman Chemical Company). Five days after induction, the medium was replaced with fresh insulin medium for 2 days. Human hepatoma cell line HUH7 was maintained in DMEM with 10% FBS, 4.5 g/L D-glucose. Rat hepatoma cell line FU5AH was maintained in Minimum Essential Medium Eagle (MEM) with 5% FBS. The hepatoma cells were plated in 96 well plates and used at 80% confluence. Human breast cancer cell line MCF7 cells were maintained in DMEM with 10% FBS, 4.5 g/L D-glucose. Human monocytic leukemia cell line THP-1 was maintained in RPMI medium with 10% FBS and used at 5×10^5 cells/ml.
The HUH7 cells or the differentiated 3T3-L1 cells were incubated with DMEM with 10% charcoal-stripped FBS (Gibco) in 5% CO2 at 37° C. for overnight. The FU5AH cells were incubated with MEM with 5% charcoal-stripped FBS in 5% CO2 at 37° C. for overnight. About 100 μl of 300 μM ^13C18-oleic acid (SIGMA) precomplexed with 0.5% fatty acid free BSA (SIGMA) were added to the cell suspension in 5% CO2 at 37° C. for 0, 30, 60, 120 and 180 minutes. Then the cells were washed once with phosphate buffered saline and extracted with 100 μl of isopropyl alcohol. After incubating at room temperature for 10 minutes, the extraction was transferred to a glass vial and detected for labeled lipid molecules using the LC-MS system.
The LC-MS detection was conducted with Agilent 1100 Liquid Chromatographic system (Agilent Technologies, Palo Alto, Calif.) interfaced with a Micromass triple-quadrupole Quattro Micro mass spectrophotometer (Waters, Milford, Mass.) through a Z-spray electrospray ion source (ESI). Separation of the metabolites was performed on an Eclipse XDB-C8 column (2.1×50 mm, particle size=3.5 μm). Mobile Phase A, 50 mM ammonium formate in isopropanol-water (3:7), and mobile phase B, 10 mM ammonium formate in isopropanol-water (9:1) were used for a gradient elution as following: 20-100% Mobile Phase B for 1 min, hold 100% Mobile Phase B for 4 min, return to 20% Mobile Phase B for 0.1 min, then post run time of 4.5 min. The flow rate was 0.5 ml/min. […]
(§2) For evaluating compounds which modulate activity of DGAT1 or DGAT2, HUH7 or 3T3-L1 cells were preincubated with about 0, 0.03, 0.1, 0.3, 1, 3, or 10 μM Compounds 1 or 2 for about 10 minutes at 37° C. in 100 μl serum free medium with 0.05% DMSO. […] After incubation at 37° C. for about 90 minutes, cells were extracted and detected as described in Example 2.

Assay [1] has as its system differentiated 3T3-L1 cells. As to the kind of experiment: Stable isotope (13C18-oleic acid) labeling of triglyceride synthesis with LC-MS detection in differentiated 3T3-L1 cells. Format: cell-based, mouse. Particulars: differentiated 3T3-L1 cell line. Here is the method:
as §1, with “The hepatoma cells were plated in 96 well plates and used at 80% confluence. Human breast cancer cell line MCF7 cells were maintained in DMEM with 10% FBS, 4.5 g/L D-glucose. Human monocytic leukemia cell line THP-1 was maintained in RPMI medium with 10% FBS and used at 5×10^5 cells/ml.” left out
The HUH7 cells or the differentiated 3T3-L1 cells were incubated with DMEM with 10% charcoal-stripped FBS (Gibco) in 5% CO2 at 37° C. for overnight. […] After incubating at room temperature for 10 minutes, the extraction was transferred to a glass vial and detected for labeled lipid molecules using the LC-MS system. […]
as §2

The next assay concerns MCF7 cells. Put plainly: Stable isotope (13C18-oleic acid) labeling of triglyceride synthesis with LC-MS detection in MCF7 cells. Format: cell-based, human. The settings on record: compound 0.1-10 μM (concentration of the result not stated), about 3 hours with 13C18-oleic acid, % of control (FIG. 6). As to the method: as §1
The LC-MS detection was conducted with Agilent 1100 Liquid Chromatographic system (Agilent Technologies, Palo Alto, Calif.) interfaced with a Micromass triple-quadrupole Quattro Micro mass spectrophotometer (Waters, Milford, Mass.) through a Z-spray electrospray ion source (ESI). […]
Next, the effects of Compound 2 in MCF7 cells were evaluated. […]

Turning to `COc1ccc(CC(=O)Nc2ccc(N3CCN(C(=O)Nc4c(Cl)cc(CN5CCCC5)cc4Cl)CC3)cc2)cc1` [Compound 1, N-[2,6-Dichloro-4-(pyrrolidin-1-ylmethyl)phenyl]-4-(4-{[(4-methoxyphenyl)acetyl]amino}phenyl)piperazine-1-carboxamide], the “levels of 13C18-triolein relative to those of the control” value in the assay with HUH7 cells (HUH7 cell line) is reported as “about 30%”; in assay [1] (about 10 μM compound, about 90 minutes with 13C18-oleic acid, % of control (FIG. 4)), “about 33%”. Also, the “levels of the newly synthesized 13C18-triolein in the presence of compound” value in the assay on HUH7 cells (HUH7 cell line, result in words) is “reduced levels”; in assay [1] (result in words), “reduced levels”. For the same molecule, in the assay with HUH7 cells (HUH7 cells incubated with compound (FIG. 5), result in words), the 13C18-oleoyl-diglyceride level result is reported as “transient increase”.

As to `COC(=O)c1[nH]c(=S)n(C(c2ccc(Cl)c(Cl)c2)C2CCCCC2)c1C(=O)OC` (stereo not shown) [Compound 2, dimethyl 1-[cyclohexyl(3,4-dichlorophenyl)methyl]-2-thioxo-2,3-dihydro-1H-imidazole-4,5-dicarboxylate], the entries for the “levels of 13C18-triolein relative to those of the control” value with HUH7 cells (HUH7 cell line) and in the assay with MCF7 cells were “about 75%” and “about 80%”, respectively.

The values above are taken from patent US9012159B2, “Cell based screening assays for the triglyceride synthesis pathway” (Janssen Research & Development, LLC, priority 2009, dated 2015).
